Consider 21 molecules from BindingDB's records for PubMed 3011801 (University of Oulu, 1986).

The target of the test is T1, Prolyl 4-hydroxylase subunit alpha-1 (Gallus gallus, UniProt P16924).
T1 sequence (P16924 whole entry): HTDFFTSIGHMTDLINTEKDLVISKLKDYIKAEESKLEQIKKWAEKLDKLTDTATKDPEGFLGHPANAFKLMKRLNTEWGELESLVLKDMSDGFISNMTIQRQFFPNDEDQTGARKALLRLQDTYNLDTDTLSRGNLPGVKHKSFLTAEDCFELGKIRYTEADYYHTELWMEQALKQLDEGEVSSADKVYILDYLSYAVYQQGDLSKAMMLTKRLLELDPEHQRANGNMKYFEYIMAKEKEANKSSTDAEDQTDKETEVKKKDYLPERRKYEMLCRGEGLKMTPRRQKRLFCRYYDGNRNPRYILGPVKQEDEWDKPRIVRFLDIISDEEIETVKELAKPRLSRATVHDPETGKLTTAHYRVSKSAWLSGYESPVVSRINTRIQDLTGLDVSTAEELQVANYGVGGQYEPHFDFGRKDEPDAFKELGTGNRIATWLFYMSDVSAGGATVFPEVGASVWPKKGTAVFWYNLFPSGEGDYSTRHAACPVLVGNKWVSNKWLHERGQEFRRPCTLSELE
Nature of the test: Inhibition Assay. The source says:
Inhibition assay using procollagen-prolin, 2-oxoglutarate 4-dioxygenase.
In general, Ki refers to a measure of affinity in units of concentration, obtained from inhibition or displacement. As for `Oc1cccc(O)c1`, the Ki was 10200 µM.
With `Oc1ccc(O)cc1`, affinity was put at a Ki of 14000 µM.
The molecule `Oc1cccc(O)c1O` registered a Ki of 30 µM.
Turning to `O=C(O)c1cccc(O)c1`, the Ki is greater than 20000 µM.
The value for `Oc1ccccc1O` [1,2-Dihydroxybenzene, XI] was 25 µM; that for `O=C(O)c1cccc(O)c1O` [2,3-Dihydroxybenzoate, IV] was 70 µM.
Next, `O=C(O)c1cc(O)ccc1O` [2,5-Dihydroxybenzoate, VI]: 1400 µM.
As for `O=C(O)c1c(O)cccc1O` [2,6-Dihydroxybenzoate, VII], the affinity, expressed as Ki, was 1100 µM.
As for `O=C(O)/C=C/c1ccc(O)c(O)c1` [3,4-Dihydroxycinnamate, XVII], the Ki came out at 18 µM.
The molecule `O=C(O)C(O)c1ccc(O)c(O)c1` (stereo unspecified) [3,4-Dihydroxymandelate, XVI] gave a Ki of 9 µM. This Ki lies about 2-fold lower than the previous one.
In the case of `O=C(O)c1cc(O)cc(O)c1` [3,5-dihydroxybenzoic acid], the Ki worked out at 9000 µM.
The value for `O=C(O)CCc1ccc(O)c(O)c1` [3-(3,4-dihydroxyphenyl)propanoic acid] was 13 µM.
The value for `O=C(O)c1ccc(O)cc1` [4-Hydroxybenzoate, III] was 3200 µM; that for `O=C1OC(C(O)CO)C(O)C1O` (stereo unspecified) [5-(1,2-Dihydroxy-ethyl)-3,4-dihydroxy-dihydro-furan-2-one] was greater than 20000 µM.
The value for `O=C(O)[C@H](O)c1ccccc1` [(+)-Mandelate, XXI] was greater than 20000 µM; that for `O=C(O)c1cc(O)c(O)c(O)c1` [Gallic Acid, F] was 30 µM; that for `O=C(O)Cc1ccccc1` [Phenylacetate, XIX] was greater than 20000 µM.
`O=C(O)c1ccc(O)c(O)c1` [Protocatechuic acid (M1)]: the affinity, expressed as Ki, was 5 µM. This counts as single-digit micromolar.
On to `O=C(O)Cc1ccc(O)c(O)c1` [SMR000326727], for which the Ki turned out to be 9 µM.
The value for `O=C(O)c1ccc(O)cc1O` [beta-Resorcylic acid] was 530 µM; that for `O=C(O)c1ccccc1O` [salicylic acid] was 2300 µM.
